Assay results: PMC11823609, “Advancements in the fight against globally distributed OXA-48 carbapenemase: evaluating the new generation of carbapenemase inhibitors” (Antimicrobial Agents and Chemotherapy, 2025)
≈ marks a conversion by molar mass, not a printed value. Where two headings read alike, the source gives them in different places.

How the values were obtained:
Assay in all cases: microbe, parasite or virus in culture
[1] = tested on: K. pneumoniae strain 170 (MLST 307, No ESBL); format: cell-based; details: Klebsiella pneumoniae; K. pneumoniae 170; β-lactamase inhibitor alone; read-out: MIC
Protocol: (§1) The efficacy of these new BLIs was also evaluated against 18 genetically diverse WGS-characterized collection of OXA-48-positive Enterobacterales recovered as part of the Carbapenem-resistant Enterobacterales Genome Database Project (https://genomes.cnag.cat/incredble) listed in Table S2 ([13]). Combinations of clinical isolates (five pairs of Klebsiella pneumoniae, two pairs of Enterobacter cloacae, and two pairs of E. coli) were chosen for analysis: (i) nine strains carrying ESBLs; and (ii) nine strains (genetically closer available strains) without ESBLs.
(§2) The MICs of each of the individual compounds (antibiotics or inhibitors) were also determined. The MICs were determined for the E. coli isogenic expressing OXA-48 (and both OXA-48 and CTX-M-14) to assess their activity against the carbapenemase; MICs were also determined for the 18 Enterobacterales clinical isolates in order to evaluate the new inhibitors against also their resistance concomitant mechanisms. The MICs were determined in triplicate experiments, and the EUCAST 13.0 clinical breakpoints were followed (http://www.eucast.org/clinical_breakpoints).
(§3) For comparative evaluation of the activity of each inhibitor alone against the carbapenemase OXA-48, all inhibitors (at 4 mg/L) were tested in the presence of a carbapenem (ertapenem, adequate substrate) and a cephalosporin (ceftazidime, poor substrate) as reporter substrates. This prevented any possible masking effect produced by the different partner antibiotics. These assays were also performed with isogenic transformants and clinical isolates.

[2] = tested on: K. pneumoniae strain 194 (MLST 392, No ESBL); format: cell-based; details: Klebsiella pneumoniae; K. pneumoniae 194; β-lactamase inhibitor alone; read-out: MIC
Protocol: as §1, §2, §3

[3] = tested on: E. coli strain 103 (MLST 10, ESBL); format: cell-based; details: Escherichia coli
Protocol: as §1, §2, §3

[4] = tested on: E. coli strain 224 (MLST 127, No ESBL); format: cell-based; details: Escherichia coli; E. coli 224; β-lactamase inhibitor alone; read-out: MIC
Protocol: as §1, §2, §3

[5] = tested on: E. cloacae strain 231 (MLST 171, No ESBL); format: cell-based; details: Enterobacter cloacae
Protocol: as §1, §2, §3

[6] = tested on: K. pneumoniae strain 413 (MLST 147, ESBL); format: cell-based; details: Klebsiella pneumoniae
Protocol: as §1, §2, §3

[7] = tested on: K. pneumoniae strain 237 (MLST 147, No ESBL); format: cell-based; details: Klebsiella pneumoniae; K. pneumoniae 237; β-lactamase inhibitor alone; read-out: MIC
Protocol: as §1, §2, §3

[8] = tested on: E. coli strain 177 (MLST 131, ESBL); format: cell-based; details: Escherichia coli
Protocol: as §1, §2, §3

[9] = tested on: K. pneumoniae strain 71 (MLST 15, No ESBL); format: cell-based; details: Klebsiella pneumoniae; K. pneumoniae 71; β-lactamase inhibitor alone; read-out: MIC
Protocol: as §1, §2, §3

[10] = tested on: E. coli strain 264 (MLST 131, No ESBL); format: cell-based; details: Escherichia coli; E. coli 264; β-lactamase inhibitor alone; read-out: MIC
Protocol: as §1, §2, §3

[11] = tested on: E. cloacae strain 281 (MLST 78, No ESBL); format: cell-based; details: Enterobacter cloacae
Protocol: as §1, §2, §3

[12] = tested on: K. pneumoniae strain 497 (MLST 11, No ESBL); format: cell-based; details: Klebsiella pneumoniae; K. pneumoniae 497; β-lactamase inhibitor alone; read-out: MIC
Protocol: as §1, §2, §3

[13] = tested on: E. cloacae strain 272 (MLST 78, ESBL); format: cell-based; details: Enterobacter cloacae
Protocol: as §1, §2, §3

[14] = tested on: K. pneumoniae strain 125 (MLST 307, ESBL); format: cell-based; details: Klebsiella pneumoniae
Protocol: as §1, §2, §3

[15] = tested on: E. cloacae strain 235 (MLST 171, ESBL); format: cell-based; details: Enterobacter cloacae
Protocol: as §1, §2, §3

[16] = tested on: K. pneumoniae strain 238 (MLST 15, ESBL); format: cell-based; details: Klebsiella pneumoniae
Protocol: as §1, §2, §3

[17] = tested on: K. pneumoniae strain 23 (MLST 392, ESBL); format: cell-based; details: Klebsiella pneumoniae
Protocol: as §1, §2, §3

[18] = tested on: K. pneumoniae strain 19 (MLST 11, ESBL); format: cell-based; details: Klebsiella pneumoniae
Protocol: as §1, §2, §3

E. coli TG1 = format: cell-based; details: Escherichia coli, β-lactamase inhibitor alone
Protocol: as §2, §3

E. coli TG1 (OXA-48) = format: cell-based, Escherichia coli; details: Escherichia coli
Protocol: as §2, §3

[19] = tested on: E. coli HB4 ΔompC/F (OXA-48); format: cell-based, Escherichia coli; details: Escherichia coli
Source text: (§4) The E. coli HB4 strain was used to gain a more complete perspective, by evaluating the involvement in resistance of a low permeability background with the carbapenemase OXA-48, as well as coproduction of an ESBL and the carbapenemase; thus, the ESBL CTX-M-14 and OXA-48 were cloned together and separately into E. coli HB4. The characteristics of these strains and transformants are summarized in Table S1, and the cloning procedures are outlined in the supplemental methods.
as §2, §3

E. coli HB4 ΔompC/F = format: cell-based, Escherichia coli; details: Escherichia coli
Source text: as §4, §2, §3

[20] = E. cloacae 231, β-lactamase inhibitor alone, read-out: MIC
[21] = E. cloacae 281, β-lactamase inhibitor alone, read-out: MIC

Structure (SMILES) | MIC [1] | MIC [2] | MIC [3] | MIC [4] | MIC [6] | MIC [7] | MIC [8] | MIC [9] | MIC [10] | MIC [12] | MIC [13] | MIC [14] | MIC [15] | MIC [16] | MIC [17] | MIC [18] | MIC (E. coli TG1) | MIC (E. coli TG1 (OXA-48)) | MIC [19] | MIC (E. coli HB4 ΔompC/F) | further results
NCCONC(=O)[C@@H]1CC[C@@H]2CN1C(=O)N2OS(=O)(=O)O [Nacubactam, nacubactam] | 4 µg/mL | 2 µg/mL | 2 µg/mL | 8 µg/mL | ≥ 128 µg/mL | 1 µg/mL | 8 µg/mL | 16 µg/mL | 1 µg/mL | ≥ 128 µg/mL | 4 µg/mL | ≥ 128 µg/mL | 8 µg/mL | 16 µg/mL | 2 µg/mL | ≥ 128 µg/mL | 2 µg/mL (≈ 6.17 µM) | 2 µg/mL (≈ 6.17 µM) | 2 µg/mL (≈ 6.17 µM) | 2 µg/mL (≈ 6.17 µM) | MIC [5, 20]: 1 µg/mL; MIC [11, 21]: 4 µg/mL
NCCN[C@H]1CC[C@H](CC(=O)N[C@H]2Cc3cccc(C(=O)O)c3OB2O)CC1 [Taniborbactam, taniborbactam] | ≥ 128 µg/mL | ≥ 128 µg/mL | ≥ 128 µg/mL | ≥ 128 µg/mL | ≥ 128 µg/mL | ≥ 128 µg/mL | ≥ 128 µg/mL | ≥ 128 µg/mL | ≥ 128 µg/mL | ≥ 128 µg/mL | ≥ 128 µg/mL | ≥ 128 µg/mL | ≥ 128 µg/mL | ≥ 128 µg/mL | ≥ 128 µg/mL | ≥ 128 µg/mL | ≥ 128 µg/mL | ≥ 128 µg/mL | ≥ 128 µg/mL | ≥ 128 µg/mL | MIC [5]: ≥ 128 µg/mL; MIC [11]: ≥ 128 µg/mL
O=C(O)C[C@@H]1CC[C@H](NC(=O)Cc2cccs2)B(O)O1 [Vaborbactam, vaborbactam] | ≥ 128 µg/mL | ≥ 128 µg/mL | ≥ 128 µg/mL | ≥ 128 µg/mL | ≥ 128 µg/mL | ≥ 128 µg/mL | ≥ 128 µg/mL | ≥ 128 µg/mL | ≥ 128 µg/mL | ≥ 128 µg/mL | ≥ 128 µg/mL | ≥ 128 µg/mL | ≥ 128 µg/mL | ≥ 128 µg/mL | ≥ 128 µg/mL | ≥ 128 µg/mL | ≥ 128 µg/mL | ≥ 128 µg/mL | ≥ 128 µg/mL | ≥ 128 µg/mL | MIC [5, 20]: ≥ 128 µg/mL; MIC [11, 21]: ≥ 128 µg/mL
